According to BigSolDB 2.1:

CC(C)(C)c1ccc2c(c1)C(=O)c1ccccc1C2=O
solubility (mole fraction)
Conditions	303.15 K	308.15 K	313.15 K	318.15 K	323.15 K	333.15 K
in 2,6-dimethyl-4-heptanol	0.0245	0.0351	0.0461	0.0635	0.0998	0.21
in mesitylene	0.282	0.317	0.345	0.386	0.443	0.604
in trioctyl phosphate	0.169	0.185	0.209	0.254	0.296	0.39
